Assay results from patent US10570121B2, “Substituted dihydroisoquinolinone compounds” (priority 2014, dated 2020).
Read-outs that look alike come from different tables or passages of the source.

What was measured:
WT EZH2 = WT EZH2 (Homo sapiens (Human), UniProt Q15910); experiment: WT EZH2 nucleosome assay (10X SAM, high SAM conditions); format: biochemical; details: 15 uM SAM, Ki app from competitive inhibition fit
Procedure: (§1) The genes for EZH2, EED, SUZ12, and RBBP4 proteins were cloned into pBacPAK9 vectors (Clontech). RBBP4 was FLAG tagged on the N-terminal end. The baculovirus expressions of these proteins were used to co-infect SF9 insect cells. Insect cell pellets were lysed in a buffer containing 25 mM Tris pH8.0, 300 mM NaCl, 0.5 mM TCEP, complete EDTA-free protease inhibitor (Roche), 0.1% NP-40. The supernatant from the lysate was incubated with FLAG® M2 antibody resin (Sigma). The resin was washed on the chromatography column and eluted with 0.2 mg/ml FLAG peptide. The elute was incubated with omnicleave nucleases (Epicentre Technologies) at 4° C. overnight, then concentrated and loaded onto a Superdex 200 (GE Healthcare) column. The Superdex 200 column was eluted with 25 mM Tris pH8.0, 150 mM NaCl, 0.5 mM TCEP. Fractions containing the PRC2 complex were pooled.
(§2) A. Compound preparation • 1.
(§3) B. Reagent preparation • 1. […] Dilute TCA to 20% in DI water
(§4) C. Enzyme reaction • 1. […] Some compounds were tested under high SAM conditions.
(§5) D. Data analysis • 1. IC50 values were determined by fitting the data to a 4-parameter IC50 equation using proprietary curve fitting software. • 2. For compounds tested under high SAM conditions, Ki^app values were obtained by fitting the dose response curve to a model for competitive inhibition using proprietary curve fitting software. Preparation of HeLa Oligonucleosomes: Reagents • Cell Pellet: 15 L HeLa S3 (Accelgen)+6 L HeLa S3 (in house) • Mnase (Worthington Biochemicals) Equipment • SW-28 Rotor • Dounce Homogenizer/B Pestle Buffers • Lysis: 20 mM Hepes pH 7.5, 0.25M Sucrose, 3 mM MgCl2, 0.5% Nonidet P-40, 0.5 mM TCEP, 1 Roche Protease Tablet • B: 20 mM Hepes pH7.5, 3 mM MgCl2, 0.5 mM EDTA, 0.5 mM TCEP, 1 Roche Protease Tablet • MSB: 20 mM Hepes pH7.5, 0.4 M NaCl, 1 mM EDTA, 5% v/v Glycerol, 0.5 mM TCEP, 0.2 mM PMSF • LSB: 20 mM Hepes pH7.5, 0.1M NaCl, 1 mM EDTA, 0.5 mM TCEP, 0.2 mM PMSF • NG: 20 mM Hepes pH7.5, 1 mM EDTA, 0.4 m NaCl, 0.2 mM PMSF, 0.5 mM TCEP • Storage: 20 mM Hepes pH7.5, 1 mM EDTA, 10% Glycerol, 0.2 mM PMSF, 0.5 mM TCEP Protocol

EZH2 Mutant Y641N = EZH2 Mutant Y641N (Homo sapiens (Human), UniProt Q15910, Y641N); experiment: EZH2 Mutant Y641N nucleosome assay; format: biochemical; details: PRC2 4-protein complex 6 nM, 1.5 μM SAM, HeLa oligonucleosomes
Chain of EZH2 Mutant Y641N (Q15910 whole entry Y641N, looked up): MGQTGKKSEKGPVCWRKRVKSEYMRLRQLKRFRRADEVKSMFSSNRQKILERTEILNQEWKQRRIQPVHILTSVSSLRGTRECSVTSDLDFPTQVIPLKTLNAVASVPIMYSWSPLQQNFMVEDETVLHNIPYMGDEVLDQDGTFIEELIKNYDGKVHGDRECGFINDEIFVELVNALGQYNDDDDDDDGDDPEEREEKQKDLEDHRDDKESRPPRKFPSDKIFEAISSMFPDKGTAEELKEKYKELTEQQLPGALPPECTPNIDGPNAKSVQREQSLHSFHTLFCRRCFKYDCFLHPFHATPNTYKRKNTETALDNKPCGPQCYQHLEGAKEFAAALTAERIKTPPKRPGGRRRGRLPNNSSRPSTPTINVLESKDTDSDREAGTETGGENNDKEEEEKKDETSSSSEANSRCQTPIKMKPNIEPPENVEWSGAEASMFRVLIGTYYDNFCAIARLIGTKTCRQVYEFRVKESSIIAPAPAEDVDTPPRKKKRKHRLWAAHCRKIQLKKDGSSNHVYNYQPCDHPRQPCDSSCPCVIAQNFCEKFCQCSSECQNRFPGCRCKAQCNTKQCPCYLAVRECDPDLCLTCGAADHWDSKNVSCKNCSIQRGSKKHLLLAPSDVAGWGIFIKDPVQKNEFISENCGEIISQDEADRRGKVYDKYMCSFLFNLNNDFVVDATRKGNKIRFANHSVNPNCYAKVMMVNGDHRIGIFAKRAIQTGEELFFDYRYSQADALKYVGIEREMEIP
Chain of EZH2 Mutant Y641N (O75530 whole entry partner, looked up): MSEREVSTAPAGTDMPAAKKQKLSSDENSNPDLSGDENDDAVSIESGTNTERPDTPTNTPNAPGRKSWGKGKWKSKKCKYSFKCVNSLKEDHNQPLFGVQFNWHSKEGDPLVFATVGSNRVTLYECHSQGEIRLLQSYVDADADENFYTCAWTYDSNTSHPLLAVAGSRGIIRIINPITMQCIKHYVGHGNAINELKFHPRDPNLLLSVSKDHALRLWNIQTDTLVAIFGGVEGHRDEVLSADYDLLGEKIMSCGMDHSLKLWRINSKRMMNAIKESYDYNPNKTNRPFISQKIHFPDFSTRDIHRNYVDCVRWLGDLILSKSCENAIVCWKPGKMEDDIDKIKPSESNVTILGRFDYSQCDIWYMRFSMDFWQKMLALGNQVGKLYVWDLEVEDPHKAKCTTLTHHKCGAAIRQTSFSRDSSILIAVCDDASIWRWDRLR
Chain of EZH2 Mutant Y641N (Q15022 whole entry partner, looked up): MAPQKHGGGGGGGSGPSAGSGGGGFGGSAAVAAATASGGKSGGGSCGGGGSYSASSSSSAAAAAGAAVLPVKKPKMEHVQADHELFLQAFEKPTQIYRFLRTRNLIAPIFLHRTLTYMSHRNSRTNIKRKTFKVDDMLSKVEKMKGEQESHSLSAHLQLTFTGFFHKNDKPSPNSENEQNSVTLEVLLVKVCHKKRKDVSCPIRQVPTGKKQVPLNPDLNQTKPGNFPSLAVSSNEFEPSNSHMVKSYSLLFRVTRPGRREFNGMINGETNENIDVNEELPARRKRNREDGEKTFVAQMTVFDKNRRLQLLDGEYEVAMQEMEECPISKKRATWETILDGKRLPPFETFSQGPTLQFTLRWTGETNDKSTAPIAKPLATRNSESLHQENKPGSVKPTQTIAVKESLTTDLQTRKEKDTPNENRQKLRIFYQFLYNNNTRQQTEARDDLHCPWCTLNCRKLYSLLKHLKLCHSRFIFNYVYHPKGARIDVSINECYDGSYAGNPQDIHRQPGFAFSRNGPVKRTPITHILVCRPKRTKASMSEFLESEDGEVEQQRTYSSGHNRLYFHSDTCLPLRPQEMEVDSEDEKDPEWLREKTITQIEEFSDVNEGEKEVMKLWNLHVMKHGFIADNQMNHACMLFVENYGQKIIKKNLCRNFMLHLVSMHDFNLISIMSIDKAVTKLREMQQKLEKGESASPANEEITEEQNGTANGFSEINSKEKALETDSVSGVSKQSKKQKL
Chain of EZH2 Mutant Y641N (Q09028 whole entry partner, looked up): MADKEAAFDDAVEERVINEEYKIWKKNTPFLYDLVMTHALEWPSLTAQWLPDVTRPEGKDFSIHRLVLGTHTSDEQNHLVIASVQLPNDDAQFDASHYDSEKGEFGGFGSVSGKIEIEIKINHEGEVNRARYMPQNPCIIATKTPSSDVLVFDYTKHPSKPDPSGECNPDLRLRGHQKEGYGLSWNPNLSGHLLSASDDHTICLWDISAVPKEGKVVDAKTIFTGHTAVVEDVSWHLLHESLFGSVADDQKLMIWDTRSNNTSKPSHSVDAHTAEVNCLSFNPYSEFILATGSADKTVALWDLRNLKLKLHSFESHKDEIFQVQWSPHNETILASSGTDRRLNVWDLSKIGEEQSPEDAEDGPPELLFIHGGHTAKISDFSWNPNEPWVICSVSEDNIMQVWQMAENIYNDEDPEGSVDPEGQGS
Procedure: as §1, §2, §3, §4, §5

[1] = read-out: WT EZH2 Nucleosome assay (10X SAM) Ki
[2] = read-out: EZH2 Mutant Y641N Nucleosome assay IC50
[3] = WT EZH2 Nucleosome assay (10X SAM) Ki (μM)
[4] = EZH2 Mutant Y641N Nucleosome assay IC50 (μM)

Chain of WT EZH2 (Q15910 whole entry, looked up): as the sequence (Q15910 whole entry Y641N, looked up) above, with N641Y counted along it
Chain of WT EZH2 (O75530 whole entry partner, looked up): as the sequence (O75530 whole entry partner, looked up) above
Chain of WT EZH2 (Q15022 whole entry partner, looked up): as the sequence (Q15022 whole entry partner, looked up) above
Chain of WT EZH2 (Q09028 whole entry partner, looked up): as the sequence (Q09028 whole entry partner, looked up) above

Ki (WT EZH2; [1]) [nM] | IC50 (EZH2 Mutant Y641N; [2]) [µM] | Ki (WT EZH2; [3]) [nM] | IC50 (EZH2 Mutant Y641N; [4]) [µM] | SMILES
44 | 0.309 |  |  | Cc1cc(C)c(CN2CCc3c(C)cc(C(C)C4CN(S(C)(=O)=O)C4)c(Cl)c3C2=O)c(=O)[nH]1 (single isomer, unassigned) [Example 194]
0.7 | 0.006 |  |  | Cc1cc(C)c(CN2CCc3c(Cl)cc(C(C)C4CNC4)c(Cl)c3C2=O)c(=O)[nH]1 (single isomer, unassigned) [Example 189]
55 | 0.204 |  |  | COc1cc(C)[nH]c(=O)c1CN1CCc2c(Cl)cc(C(C3COC3)N(C)C)c(Cl)c2C1=O (single isomer, unassigned) [Example 203]
2 | 0.014 |  |  | COC(c1ccc2c(c1Cl)C(=O)N(Cc1c(C)cc(C)[nH]c1=O)CC2)C1CCOC1 (single isomer, unassigned) [Example 135]
52 | 0.238 |  |  | COc1cc(C)[nH]c(=O)c1CN1CCc2c(C)cc([C@@H](OC)[C@@H]3CCOC3)c(Cl)c2C1=O (single isomer, unassigned) [Example 85, 8-chloro-2-[(4-methoxy-6-methyl-2-oxo-1,2-dihydropyridin-3-yl)methyl]-7-{(S*)-methoxy[(3R*)-tetrahydrofuran-3-yl]methyl}-5-methyl-3,4-dihydroisoquinolin-1(2H)-one]
117 | 0.605 |  |  | COc1cc(C)[nH]c(=O)c1CN1CCc2c(C)cc(C(C)C3CN(S(C)(=O)=O)C3)c(Cl)c2C1=O (single isomer, unassigned) [Example 192]
0.8 | 0.012 |  |  | COC(c1cc(Cl)c2c(c1Cl)C(=O)N(Cc1c(C)cc(C)[nH]c1=O)CC2)C1CN(C(=O)[C@H](C)O)C1 (single isomer, unassigned) [Example 172]
0.7 | 0.005 |  |  | COC(c1cc(C)c2c(c1Cl)C(=O)N(Cc1c(C)cc(C)[nH]c1=O)CC2)C1CCS(=O)(=O)CC1 (single isomer, unassigned) [Example 131]
0.2 | 0.002 |  |  | COc1cc(C)[nH]c(=O)c1CN1CCc2c(C)cc([C@H](OC)[C@H]3CCOC3)c(Cl)c2C1=O (single isomer, unassigned) [Example 84, 8-chloro-2-[(4-methoxy-6-methyl-2-oxo-1,2-dihydropyridin-3-yl)methyl]-7-{(R*)-methoxy[(3S*)-tetrahydrofuran-3-yl]methyl}-5-methyl-3,4-dihydroisoquinolin-1(2H)-one]
85 | 1 |  |  | COC(c1cc(Cl)c2c(c1Cl)C(=O)N(Cc1c(C)cc(C)[nH]c1=O)CC2)C1CN(C)C1 (single isomer, unassigned) [Example 175]
 |  | 200 | 1.97 | [2H]C([2H])([2H])OC(c1cc(Cl)c2c(c1Cl)C(=O)N(Cc1c(C)cc(C)[nH]c1=O)CC2)C1CCN(C(=O)CO)CC1 (single isomer, unassigned) [Example 164]
62 | 0.85 |  |  | COC(c1cc(Cl)c2c(c1Cl)C(=O)N(Cc1c(C)cc(C)[nH]c1=O)CC2)C1CCNCC1 (single isomer, unassigned) [Example 167]
28 | 0.122 |  |  | COc1cc(C)[nH]c(=O)c1CN1CCc2c(Cl)cc(C(C)C3CN(C)C3)c(Cl)c2C1=O (single isomer, unassigned) [Example 88, 5,8-dichloro-2-[(4-methoxy-6-methyl-2-oxo-1,2-dihydropyridin-3-yl)methyl]-7-[1-(1-methylazetidin-3-yl)ethyl]-3,4-dihydroisoquinolin-1 (2H)-one]
 |  | 58 | 0.892 | COc1cc(C)[nH]c(=O)c1CN1CCc2c(Cl)cc(C(OC)C3CCOC3)c(Cl)c2C1=O (single isomer, unassigned) [Example 124]
1 | 0.01 |  |  | Cc1cc(C)c(CN2CCc3c(Cl)cc(C(C)C4CN(C)C4)c(Cl)c3C2=O)c(=O)[nH]1 (single isomer, unassigned) [Example 187]
2 | 0.016 |  |  | COC(c1cc(Cl)c2c(c1Cl)C(=O)N(Cc1c(C)cc(C)[nH]c1=O)CC2)[C@H](C)CO (single isomer, unassigned) [Example 141]
46 | 0.216 |  |  | Cc1cc(C)c(CN2CCc3c(C)cc(C(C)C4COC4)c(Cl)c3C2=O)c(=O)[nH]1 (single isomer, unassigned) [Example 195]
220 | 1.99 |  |  | COc1cc(C)[nH]c(=O)c1CN1CCc2c(C)cc(C(OC)C3CCS(=O)(=O)CC3)c(Cl)c2C1=O (single isomer, unassigned) [Example 130]
652 | 5.02 |  |  | Cc1cc(C)c(CN2CCc3c(Cl)cc(C(F)C4CCN(C(=O)CO)CC4)c(Cl)c3C2=O)c(=O)[nH]1 (single isomer, unassigned; (+)) [Example 8, (+)-5,8-dichloro-2-[(4,6-dimethyl-2-oxo-1,2-dihydropyridin-3-yl)methyl]-7-{fluoro[1-(hydroxyacetyl)piperidin-4-yl]methyl}-3,4-dihydroisoquinolin-1(2H)-one]
0.5 | 0.0085 |  |  | COC(c1cc(Br)c2c(c1Cl)C(=O)N(Cc1c(C)cc(C)[nH]c1=O)CC2)C1CN(C(=O)CO)C1 (single isomer, unassigned) [Example 139]
14 | 0.151 |  |  | Cc1cc(C)c(CN2CCc3c(Cl)cc(C(C)C4CN(C)C4)c(Cl)c3C2=O)c(=O)[nH]1 (single isomer, unassigned) [Example 188]
0.01 | 0.002 |  |  | COc1cc(C)[nH]c(=O)c1CN1CCc2c(Cl)cc(C(C)C3CN(C)C3)c(Cl)c2C1=O (single isomer, unassigned) [Example 87, 5,8-dichloro-2-[(4-methoxy-6-methyl-2-oxo-1,2-dihydropyridin-3-yl)methyl]-7-[1-(1-methylazetidin-3-yl)ethyl]-3,4-dihydroisoquinolin-1 (2H)-one]
8 | 0.109 |  |  | COC(c1cc(Cl)c2c(c1Cl)C(=O)N(Cc1c(C)cc(C)[nH]c1=O)CC2)[C@@H](C)CO (single isomer, unassigned) [Example 142]
9 | 0.081 |  |  | Cc1cc(C)c(CN2CCc3c(Cl)cc(C(CO)N4CCC(F)(F)C4)c(Cl)c3C2=O)c(=O)[nH]1 (single isomer, unassigned) [Example 66]
2 | 0.062 |  |  | COc1cc(C)[nH]c(=O)c1CN1CCc2c(Cl)cc(C(C3COC3)N(C)C)c(Cl)c2C1=O (single isomer, unassigned) [Example 204]
3 | 0.017 |  |  | Cc1cc(C)c(CN2CCc3ccc(C(CO)C4CCOC4)c(Cl)c3C2=O)c(=O)[nH]1 (single isomer, unassigned) [Example 99]
0.3 | 0.005 |  |  | COC(c1cc(Cl)c2c(c1Cl)C(=O)N(Cc1c(C)cc(C)[nH]c1=O)CC2)C1CC[S+]([O-])CC1 (single isomer, unassigned) [Example 115]

SMILES | Ki (WT EZH2; [1]) [nM] | IC50 (EZH2 Mutant Y641N; [2]) [µM] | Ki (WT EZH2; [3]) [nM] | IC50 (EZH2 Mutant Y641N; [4]) [µM]
Cc1cc(C)c(CN2CCc3c(Cl)cc([C@@H](CO)[C@@H]4CCCO4)c(Cl)c3C2=O)c(=O)[nH]1 [Example 46] | 121 | 0.423 |  | 
COc1cc(C)[nH]c(=O)c1CN1CCc2c(Cl)cc([C@H](OC)C3COC3)c(Cl)c2C1=O [Example 81, 5,8-dichloro-2-[(4-methoxy-6-methyl-2-oxo-1,2-dihydropyridin-3-yl)methyl]-7-[(R)-methoxy(oxetan-3-yl)methyl]-3,4-dihydroisoquinolin-1(2H)-one] | 0.2 | 0.003 |  | 
Cc1cc(C)c(CN2CCc3c(Cl)cc([C@@H](CO)[C@H]4CCCO4)c(Cl)c3C2=O)c(=O)[nH]1 [Example 45] | 103 | 0.345 |  | 
Cc1cc(C)c(CN2CCc3c(Cl)cc(C(CO)N4CC[C@@H](F)C4)c(Cl)c3C2=O)c(=O)[nH]1 (single isomer, unassigned) [Example 6] | 19 | 0.136 |  | 
Cc1cc(C)c(CN2CCc3c(Cl)cc(C(F)=C4CN(C(=O)CO)C4)c(Cl)c3C2=O)c(=O)[nH]1 [Example 79] | 17 | 0.133 |  | 
